{
  "source": "the NIST ThermoML archive (doi:10.1021/acs.jced.9b00348)",
  "experiment": "molar heat capacity at constant pressure",
  "conditions": "100 kPa, DSC",
  "note": "Numbers after ± are expanded uncertainties.",
  "data": [
    {"smiles": "[F][Th]([F])([F])[F]", "note": "[thorium tetraluoride]", "values": [
      {"measurement": "molar heat capacity at constant pressure", "setting": "1278 K, Crystal", "value": "145 ± 21", "unit": "J/K/mol"},
      {"measurement": "molar heat capacity at constant pressure", "setting": "1478 K, Liquid", "value": "168 ± 21", "unit": "J/K/mol"}
    ]}
  ]
}
